Experimental data reported in patent publication US8207150B2, “17β-cyano-19-nor-androst-4-ene derivative, its use and medicaments comprising the derivative” (Bayer Pharma AG, priority 2007, dated 2012).
Where “and” joins values, the source holds several entries; their conditions need not be identical. Equal values may be shown once. Read-outs that look alike come from different tables or passages of the source.

Assays:
[1] = molecular target: T1, mineralcorticoid receptor (Homo sapiens, UniProt P08235); test: MR antagonism, luciferase reporter cell line assay; format: cell-based; conditions: 16 hours incubation, luminescence
T1 sequence (P08235 1-984): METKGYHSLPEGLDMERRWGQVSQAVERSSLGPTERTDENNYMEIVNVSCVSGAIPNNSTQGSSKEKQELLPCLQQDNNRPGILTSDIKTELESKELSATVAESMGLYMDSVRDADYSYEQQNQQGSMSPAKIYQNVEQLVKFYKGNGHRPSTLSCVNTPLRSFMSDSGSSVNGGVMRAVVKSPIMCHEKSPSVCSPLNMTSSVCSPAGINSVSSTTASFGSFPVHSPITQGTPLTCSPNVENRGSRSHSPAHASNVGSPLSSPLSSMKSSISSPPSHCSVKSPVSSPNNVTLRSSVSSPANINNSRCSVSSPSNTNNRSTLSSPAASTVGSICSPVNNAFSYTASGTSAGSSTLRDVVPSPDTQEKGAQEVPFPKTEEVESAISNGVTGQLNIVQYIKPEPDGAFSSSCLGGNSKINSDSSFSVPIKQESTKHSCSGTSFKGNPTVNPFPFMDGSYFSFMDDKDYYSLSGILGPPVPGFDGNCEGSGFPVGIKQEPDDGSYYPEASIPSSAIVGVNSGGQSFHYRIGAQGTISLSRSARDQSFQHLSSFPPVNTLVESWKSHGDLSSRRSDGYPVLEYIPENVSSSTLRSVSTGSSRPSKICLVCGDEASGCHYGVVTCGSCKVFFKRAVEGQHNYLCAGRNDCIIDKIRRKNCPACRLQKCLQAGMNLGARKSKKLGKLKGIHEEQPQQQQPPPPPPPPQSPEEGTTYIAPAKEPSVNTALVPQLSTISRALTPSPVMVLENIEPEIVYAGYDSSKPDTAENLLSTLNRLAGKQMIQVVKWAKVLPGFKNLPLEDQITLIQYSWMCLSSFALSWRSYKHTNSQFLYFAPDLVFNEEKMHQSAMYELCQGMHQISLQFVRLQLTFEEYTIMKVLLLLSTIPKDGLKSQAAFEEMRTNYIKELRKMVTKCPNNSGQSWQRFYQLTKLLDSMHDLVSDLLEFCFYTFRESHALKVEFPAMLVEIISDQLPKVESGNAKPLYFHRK
Procedure: The derivatives according to the invention having the general chemical formula 1 have a very strong gestagenic activity. […] They should therefore have in vivo potassium-retaining, natriuretic (antimeralcorticoid) action. These properties were determined using the test described below:
For the culturing of the cells used for the assay, the culture medium used was DMEM (Dulbecco's Modified Eagle Medium: […] of glucose; PAA, #E15-009) with 10% FCS (Biochrom, S0115, batch #615B), 4 mM L-glutamine, 1% penicillin/streptomycin, 1 mg/ml of G418 and 0.5 μg/ml of puromycin.
Reporter cell lines were grown in a density of 4×10^4 cells per hollow in white, nontransparent tissue culture plates in each case having 96 hollows (PerkinElmer, #P12-106-017) and kept in 6% DCC—FCS (activated carbon-treated serum, for the removal of interfering components contained in the serum). The compounds to be investigated were added eight days later, and the cells were incubated with the compounds for 16 hours. The experiments were carried out in triplicate. At the end of the incubation, the effector-containing medium was removed and replaced by lysis buffer. After luciferase assay substrate (promega, #E1501) had been added, the plates containing the 96 hollows were then introduced into a microplate luminometer (Pherastar, BMG labtech), and the luminescence was measured. The IC50 values were evaluated using software for the calculation of dose-activity relationships.

PR = molecular target: T2, PR (Rattus norvegicus, UniProt Q63449); test: maintenance of pregnancy test on the rat; format: in vivo; conditions: ovarectomized pregnant rats; for PR in vivo ED50: pregnancy-maintaining dose, s.c. once daily with oestrone 5 μg/kg/day
T2 construct: The maintenance of pregnancy test on ovarectomized rats serves for the determination of the peripheral gestagenic activity of a compound; from tissue; host or cells: whole animal: pregnant, ovariectomized rats
T2 sequence (Q63449 1-923): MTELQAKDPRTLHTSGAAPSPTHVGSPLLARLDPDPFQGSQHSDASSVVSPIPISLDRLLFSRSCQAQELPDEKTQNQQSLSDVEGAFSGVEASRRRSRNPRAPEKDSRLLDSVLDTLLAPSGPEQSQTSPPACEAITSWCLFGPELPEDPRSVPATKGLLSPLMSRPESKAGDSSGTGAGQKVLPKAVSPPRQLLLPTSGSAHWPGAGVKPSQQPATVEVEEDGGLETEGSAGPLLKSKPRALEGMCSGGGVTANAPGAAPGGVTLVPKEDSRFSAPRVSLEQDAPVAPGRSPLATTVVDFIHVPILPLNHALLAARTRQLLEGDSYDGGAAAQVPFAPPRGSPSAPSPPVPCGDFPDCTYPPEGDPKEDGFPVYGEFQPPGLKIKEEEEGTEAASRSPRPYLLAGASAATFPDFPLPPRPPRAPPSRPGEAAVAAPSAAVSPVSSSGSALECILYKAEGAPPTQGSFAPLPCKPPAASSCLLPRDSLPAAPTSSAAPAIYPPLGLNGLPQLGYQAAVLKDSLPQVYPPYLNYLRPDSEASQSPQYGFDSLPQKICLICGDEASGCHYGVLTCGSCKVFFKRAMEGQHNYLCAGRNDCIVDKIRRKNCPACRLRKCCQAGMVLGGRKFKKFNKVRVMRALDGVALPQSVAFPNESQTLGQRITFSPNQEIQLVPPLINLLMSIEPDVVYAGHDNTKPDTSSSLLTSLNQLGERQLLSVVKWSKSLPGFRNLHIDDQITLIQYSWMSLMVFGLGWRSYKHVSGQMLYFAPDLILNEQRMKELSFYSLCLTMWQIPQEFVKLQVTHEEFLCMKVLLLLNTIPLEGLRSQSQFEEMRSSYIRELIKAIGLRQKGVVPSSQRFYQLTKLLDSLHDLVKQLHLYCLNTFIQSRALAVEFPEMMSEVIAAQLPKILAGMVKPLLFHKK
Excerpt: Carrying out the maintenance of pregnancy test on the rat:
In pregnant rats, the removal of the corpora lutea or oophorectomy induces an abortion. By means of the exogenous administration of progestins (gestagens) in combination with a suitable dose of an oestrogen, the maintenance of pregnancy is possible. The maintenance of pregnancy test on ovarectomized rats serves for the determination of the peripheral gestagenic activity of a compound.
Rats were paired overnight during proestrus. Pairing was checked on the morning of the following day by the appraisal of a vaginal smear. The presence of the sperm was evaluated here as day 1 of a commencing pregnancy. On day 8 of the pregnancy, the animals were ovarectomized under ether anaesthesia. The treatment with test compound and exogenous oestrogen (oestrone, 5 μg/kg/day) was carried out subcutaneously once daily from day 8 to day 15 or day 21 of the pregnancy. The first administration on day 8 was carried out two hours before oophorectomy. Intact control animals were given exclusively vehicle.
At the end of the experiment (day 15 or day 21), the animals were sacrificed under a CO2 atmosphere, and live foetuses (foetuses having a beating heart) and implantation sites (early resorptions and dead foetuses including autolysis and atrophic placentas) were counted in both uterine horns. On day 22, it was moreover possible to examine foetuses for malformations. In uteri without foetuses or implantation sites, the number of nidation sites was determined by staining with 10% strength ammonium sulphide solution. The maintenance of pregnancy rate was calculated as the quotient of the number of living foetuses and the total number of nidation sites (both resorbed and dead foetuses and nidation sites). For drospirenone, this value is 3.5 mg/kg/day.

[2] = reporter cell lines, read-out: MR Antagonism IC50
[3] = MR Antagonism IC50, reporter cell lines

Row | Structure (SMILES) | MR Antagonism activity [% of the maximum effect] ([1]; reporter cell lines) | IC50 [1, 2] | PR in vivo ED50 (PR) | IC50 [1, 3] | pregnancy-maintaining dose (ED50) (PR; subcutaneously once daily with oestrone 5 μg/kg/day)
1 | C[C@]12CC[C@H]3[C@@H](C=CC4=CC(=O)CC[C@@H]43)[C@@H]1[C@@H]1C[C@@H]1[C@@H]2C#N [17β-Cyano-15β,16β-methylene-19-nor-androsta-4,6-dien-3-one] | 108.51 % of the maximum effect | 15 nM | 3.3 mg/kg/d s.c. | – | –
2 | C[C@]12CC[C@H]3[C@@H](CCC4=CC(=O)CC[C@@H]43)[C@@H]1[C@H]1C[C@H]1[C@@H]2C#N [17β-Cyano-15α,16α-methylene-19-nor-androst-4-en-3-one] | 93.01 % of the maximum effect | 16 nM | 0.8 mg/kg/d s.c. | – | –
3 | CC[C@]1(C#N)[C@H]2C[C@H]2[C@H]2[C@@H]3CCC4=CC(=O)CC[C@@H]4[C@H]3CC[C@@]21C [17β-Cyano-17α-ethyl-15β,16β-methylene-19-nor-androst-4-en-3-one] | 106.4 % of the maximum effect | 440 nM | 1.9 mg/kg/d s.c. | – | –
4 | CC[C@]1(C#N)[C@H]2C[C@H]2[C@H]2[C@@H]3[C@@H]4C[C@@H]4C4=CC(=O)CC[C@@H]4[C@H]3CC[C@@]21C (single isomer, unassigned) [17β-cyano-17α-ethyl-6α,7α-methylene-15β,16β-methylene-19-nor-androst-4-en-3-one] | – | – | 0.22 mg/kg/d s.c. | 90.2 nM | –
5 | C[C@@H]1CC2=CC(=O)CC[C@@H]2[C@H]2CC[C@]3(C)[C@@H](C#N)CC[C@H]3[C@@H]21 [17β-Cyano-7α-methyl-19-nor-androst-4-en-3-one] | 108.02 % of the maximum effect | 8.2 nM | 0.33 mg/kg/d s.c. | – | –
6 | C[C@]1(C#N)[C@H]2C[C@H]2[C@H]2[C@@H]3CCC4=CC(=O)CC[C@@H]4[C@H]3CC[C@@]21C [17β-Cyano-17α-methyl-15β,16β-methylene-19-nor-androst-4-en-3-one] | 96.00 % of the maximum effect | 29 nM | 0.8 mg/kg/d s.c. | – | –
7 | C[C@]12CCC(=O)C=C1[C@@H]1C[C@@H]1[C@H]1[C@@H]3[C@@H]4C[C@@H]4[C@@]4(CCC(=O)O4)[C@@]3(C)CC[C@@H]12 [drospirenone, 6β,7β-15β,16β-dimethylene-3-oxo-17-pregn-4-ene-21,17β-carbolactone, reference compound] | – | – | – | – | 3.5 mg/kg/day
8 | C[C@@H]1CC2=CC(=O)CC[C@@H]2[C@H]2CC[C@@]3(C)[C@@H]([C@@H]4C[C@@H]4[C@@H]3C#N)[C@@H]21 (single isomer, unassigned) [17β-Cyano-15β,16β-methylene-7α-methyl-19-nor-androst-4-en-3-one] | – | – | – | 8.3 nM and 10.3 nM | –
9 | C[C@]1(C#N)[C@H]2C[C@H]2[C@H]2[C@@H]3C=CC4=CC(=O)CC[C@@H]4[C@H]3CC[C@@]21C [17β-Cyano-17α-methyl-15β,16β-methylene-19-nor-androsta-4,6-dien-3-one] | 114 % of the maximum effect | 190 nM | 2.1 mg/kg/d s.c. | – | –
10 | C[C@@H]1CC2=CC(=O)CC[C@@H]2[C@H]2CC[C@@]3(C)[C@@H](CC[C@]3(C)C#N)[C@@H]21 [17β-Cyano-7α,17α-bismethyl-19-nor-androst-4-en-3-one] | 96.20 % of the maximum effect | – | 1 .0 mg/kg/d s.c. | 31 nM | –
11 | C[C@]12CC[C@H]3[C@@H](CCC4=CC(=O)CC[C@@H]43)[C@@H]1[C@@H]1C[C@@H]1[C@@H]2C#N [17β-Cyano-15β,16β-methylene-19-nor-androst-4-en-3-one] | 95.57 % of the maximum effect | 4.5 nM | 0.84 mg/kg/d s.c. | – | –
